Ten compounds from ChEMBL document CHEMBL5029197, “Synthesis and Metabolism of BTN3A1 Ligands: Studies on Diene Modifications to the Phosphoantigen Scaffold” (ACS Med Chem Lett, 2022) can be followed below.

The source made the active and inactive calls. The rule behind the calls is not given here.

A short description of series [1]: Stability of compound in human plasma assessed as parent compound remaining at 100 uM measured after 2 hrs by LC-MS analysis. The following applies: for Stability: 2 h, 100 µM; for remaining at 2 h, 100 µM: read-out: Stability. Type of series: ADME, cell-free.
Series [2] can be described thus: Stability of compound in human plasma assessed as parent compound remaining at 100 uM measured after 24 hrs by LC-MS analysis. The following applies: for Stability: 24 h, 100 µM; for remaining at 24 h, 100 µM: read-out: Stability. It counts as ADME, cell-free.
Series [3] in a line: (§1) Induction of cell proliferation in human Vgamma9Vdelta2-T cells stimulated with human PBMC for 3 days followed by compound washout and supplemented with IL2 every 3 days for 11 days by flow cytometry analysis. Type of series: functional, cell-based.
In a further series the test system is K562. The series can be described thus: Cytotoxicity against human K562 cells assessed as reduction in cell viability measured after 72 hrs by colorimetric assay. Type of series: cell-based. The settings on record: k562, 72 h.
The nature of series [4]: (§2) Induction of IFN-gamma production in human Vgamma9Vdelta2-T cells incubated for 4 mins with compound-loaded K562 cells followed by compound washout and measured after 20 hrs by ELISA. Type of series: functional, cell-based. The following applies: Vgamma9Vdelta2 T cell. Background: In an ELISA, binding on a coated surface is turned into a signal by an enzyme label.
Series [5] is described as follows: (§3) Induction of IFN-gamma production in human Vgamma9Vdelta2-T cells incubated for 15 mins with compound-loaded K562 cells followed by compound washout and measured after 20 hrs by ELISA. It counts as functional, cell-based. The following applies: Vgamma9Vdelta2 T cell.
Series [6] is described as follows: (§4) Induction of IFN-gamma production in human Vgamma9Vdelta2-T cells incubated for 60 mins with compound-loaded K562 cells followed by compound washout and measured after 20 hrs by ELISA. The following applies: Vgamma9Vdelta2 T cell. Type of series: functional, cell-based.
A short description of series [7]: (§5) Induction of IFN-gamma production in human Vgamma9Vdelta2-T cells incubated for 240 mins with compound-loaded K562 cells followed by compound washout and measured after 20 hrs by ELISA. Type of series: functional, cell-based. The settings on record: Vgamma9Vdelta2 T cell.
Series [8] is described as follows: Drug metabolism in human K562 cells assessed as free phosphonic diacid metabolite formation at 100 uM incubated for 1 hr by LC-MS analysis. It counts as ADME, cell-based. The settings on record: k562, 1 h.
The nature of series [9]: Drug metabolism in human K562 cells assessed as monoacid methyl ester metabolite formation at 100 uM incubated for 1 hr by LC-MS analysis. The settings on record: k562, 1 h. It counts as ADME, cell-based.
Series [10] deals with Vgamma9Vdelta2-T cell. Described as §1. Type of series: functional, cell-based. The settings on record: time 3.0 day.
For series [11], the system named is Vgamma9Vdelta2-T cell. The description is as §2. It counts as functional, cell-based.
Series [12] concerns Vgamma9Vdelta2-T cell. The description is as §3. Type of series: functional, cell-based.
Series [13] relates to Vgamma9Vdelta2-T cell. The description is as §4. It counts as functional, cell-based.
Series [14] relates to Vgamma9Vdelta2-T cell. The series is described as §5. It counts as functional, cell-based.
The target in series [15] is Butyrophilin subfamily 3 member A1 (Homo sapiens) (UniProt O00481). As to the kind of experiment: Displacement of GDP-BODIPY probe from BTN3A1 full intracellular domain (unknown origin) at […] measured after 60 mins by fluorescence polarization assay. (In general: In fluorescence polarisation assays a small probe gives low polarisation when free and higher when bound to something large.)
Chain of Butyrophilin subfamily 3 member A1 (Homo sapiens) (O00481 30-513 limits assumed): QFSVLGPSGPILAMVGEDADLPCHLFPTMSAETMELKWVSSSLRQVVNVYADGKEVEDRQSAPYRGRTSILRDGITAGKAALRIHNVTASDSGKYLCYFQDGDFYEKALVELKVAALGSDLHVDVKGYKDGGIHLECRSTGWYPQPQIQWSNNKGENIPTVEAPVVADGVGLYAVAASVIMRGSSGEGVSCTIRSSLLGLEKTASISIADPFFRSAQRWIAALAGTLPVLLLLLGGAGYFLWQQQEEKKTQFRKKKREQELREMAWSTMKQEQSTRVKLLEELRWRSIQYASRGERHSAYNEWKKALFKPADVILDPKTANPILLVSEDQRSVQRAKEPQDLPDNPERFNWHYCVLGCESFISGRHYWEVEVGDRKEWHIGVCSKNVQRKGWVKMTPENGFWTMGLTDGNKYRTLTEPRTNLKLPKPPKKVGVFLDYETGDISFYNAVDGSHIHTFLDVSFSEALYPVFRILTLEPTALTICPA

For `CC(=O)OC/C(C)=C/C=C/P(=O)(OCOC(=O)C(C)(C)C)OCOC(=O)C(C)(C)C`, the Stability result in series [1] and in [2] was “Unstable” throughout. In addition, the EC50 in series [3] is 60 µM; in series [4] it was > 100 µM; in series [5], > 100 µM; in series [6] it was > 100 µM; in series [7] it was 38 µM. Moreover, the Activity in the series on K562 is > 100 µM. Moreover, the Drug metabolism entry in series [8] was “Metabolite_Detected”.
On to `COP(=O)(/C=C/C=C(C)C)OCOC(=O)C(C)(C)C` (configuration not stated), for which the remaining at 2 h, 100 µM in series [1] was 62%. The remaining at 24 h, 100 µM in [2] amounted to 4%. Also, the EC50 was 0.13 µM in series [3]; > 100 µM in series [4]; 98 µM in series [5]; 37 µM in series [6]; 11 µM in series [7]. Further, in the series on K562, the Activity was found to be 20 µM. In addition, in series [9], the Drug metabolism result was “Metabolite_Detected”.
As for `CC(C)=C/C=C/P(=O)(Oc1ccccc1)Oc1ccccc1`, the remaining at 2 h, 100 µM in series [1] came to 89%. The remaining at 24 h, 100 µM in series [2] was determined as 73%. In addition, the result with Vgamma9Vdelta2-T cell [10], in the series on Vgamma9Vdelta2-T cell [11], in the series with Vgamma9Vdelta2-T cell [12], in the series with Vgamma9Vdelta2-T cell [13] and with Vgamma9Vdelta2-T cell [14] was inactive. In the series with K562, the Activity is > 100 µM. In addition, the Drug metabolism entry in [9] is “Metabolite_Notdetected”.
Regarding `CC(C)=C/C=C/P(=O)(OCOC(=O)C(C)(C)C)Oc1ccccc1` (configuration not stated), the remaining at 2 h, 100 µM in series [1] turned out to be 48%. The remaining at 24 h, 100 µM in [2] amounted to 16%. Besides, the EC50 in series [3] was 0.75 µM; in series [4] it was > 100 µM; in series [5], > 100 µM; in series [6], 29 µM; in series [7], 9.1 µM. For the same compound, in the series with K562, the Activity turned out to be 100 µM. Also, the Drug metabolism entry in series [8] is given as “Metabolite_Detected”.
For `C/C(=C\C=C\P(=O)(O)O)CO`, it took 15 µM to reach a half-maximal effect in series [3] (EC50). In addition, the Activity in the series on K562 is > 100 µM. Also, in series [15], the result was Active.
`COC(=O)[C@H](C)NP(=O)(/C=C/C=C(C)C)Oc1ccccc1` (some centres not stated): the remaining at 2 h, 100 µM in series [1] came out at 69%. The remaining at 24 h, 100 µM in [2] is 63%. Besides, the EC50 is 11 µM in [3]; > 100 µM in series [4]; > 100 µM in [5]; > 100 µM in series [6]; 75 µM in series [7]. Besides, the Activity in the series with K562 is > 100 µM. Also, in series [8], the Drug metabolism entry is on record as “Metabolite_Detected”.
On to `C/C(=C\CCP(=O)(OCOC(=O)C(C)(C)C)OCOC(=O)C(C)(C)C)CO`, for which the Stability result in [1] and in series [2] was “Unstable” throughout. Also, the Activity in the series on K562 was > 100 µM. The EC50 in series [5] turned out to be 0.043 µM; in series [6] it was 0.03 µM; in [7], 0.024 µM.
With `CC(C)=C/C=C/P(=O)(OCOC(=O)C(C)(C)C)OCOC(=O)C(C)(C)C`, in series [1], the remaining at 2 h, 100 µM turned out to be 6%. Further, the Stability result in [2] is recorded as “Unstable”. Further, the EC50 in [3] is 0.29 µM; in series [4] it was > 100 µM; in series [5] it was > 100 µM; in [6], 52 µM; in series [7] it was 18 µM. The Activity in the series on K562 was > 100 µM. Further, the Drug metabolism entry in series [8] is “Metabolite_Detected”.
As to `C/C(=C\CCP(=O)(O)O)CO`, the outcome in series [15] was inactive.
As to `CC(C)=C/C=C/P(=O)([O-])[O-].[Na+].[Na+]`, the EC50 in [3] is > 100 µM. For the same compound, the Activity in the series with K562 is > 100 µM. For the same compound, the outcome in series [15] was Active.

Broadly, the EC50 is the concentration needed to bring the measured effect to its halfway point.
